From US11702546B2, “Near-infrared heptamethine dyes for generation of singlet oxygen” (California Institute of Technology, priority 2018, dated 2023)
“Also recorded” adds a separate entry of the source.

Tests used:
[1] = Irradiation experiments with singlet oxygen trap DPBF (NIR laser, absorbance readout vs dark control); assay type: physicochemical; settings: for change in DPBF signal after irradiation: 980 nm laser, 1 W cm-2, CDCl3, 30 minutes, relative to dark control
Method: (§1) IR-1061 tetrafluoroborate and dry pyridine were purchased from commercial sources and used as supplied. Deuterated chloroform was purchased from commercial sources and filtered through a neutral alumina plug prior to use to neutralize and dry the solvent. Irradiations at 980 nm were performed using a 1 watt/cm^2 infrared diode laser at 980 nm coupled to a PSU-III-FDA power supply. Irradiations at 1064 nm were performed using an Nd:YAG laser at 1.8 W/cm^2. Absorbance spectra were obtained using an Agilent CARY 60 UV-Vis for spectra below 1000 nm, and a Cary 5000 UV-VIS-NIR for spectra above 1000 nm. Mass spectrometry characterization was performed via MALDI using a BRUKER MALDI/TOF Autoflex Speed and a Waters LCT Premier XE Electrospray TOF. 1H NMR spectra were obtained using a Varian 600 MHz Spectrometer.
Dye was dissolved in deuterated solvent at a concentration that would produce an absorbance near 1 at 980 nm. This was calculated using extinction coefficients determined by absorbance measurements of the dye alone. The IR-1061-acridinium irradiation in water was an exception, as the concentration was kept lower to ensure solubility. Dye solution was split into two aliquots and added to two 1 cm by 1 cm quartz cuvettes purchased from Starna. The absorption spectra were taken for both cuvettes (to ensure the pre-irradiation sample looked the same in both cases), and subsequently one cuvette was irradiated while the other was kept in the dark. A stir bar was used to ensure proper mixing during irradiation. After irradiation, the absorbance of both solutions was again evaluated. […] For the 1064 nm irradiation, the dye was dissolved at a slightly higher concentration to an absorbance of approximately 1.5 at 1064 nm and irradiated for 5 minutes. At this point significant photobleaching of the dye was observed, so additional irradiation was not performed.
The freeze-pump-thaw (FPT) experiment was carried out as follows. Dye was dissolved in deuterated chloroform and added to a FPT that apparatus. Three consecutive freeze-pump-thaw cycles were carried out to a pressure of less than […], at which point the solution was transferred under vacuum to the arm of the apparatus containing a fused 1 cm by 1 cm quartz cuvette (Starna). Irradiation and subsequent absorption measurements were carried out in the sealed cuvette.
The pyridine addition reaction was extremely sensitive to water, but gave good conversion using dry pyridine. […] Despite this inconvenience, the slightly impure dye was used as a proof of principle. For initial singlet oxygen generation experiments, the dye was dissolved in CDCl3—the solvent in which it had the highest solubility—and irradiated using a 1 Wcm^−2 980 nm laser in the presence of a singlet oxygen trap, diphenylisobenzofuran (DPBF). DPBF was selected as a trap because it is a standard in the field and because other popular detectors (such as singlet oxygen sensor green, SOSG) led to precipitation of IR-1061-pyridinium over time.

[2] = Stability and solubility observations of the dye; assay type: physicochemical
[3] = Comparative quantum yield experiments (DPBF bleaching vs phenalenone); assay type: physicochemical; settings: chloroform; for relative quantum yield of singlet oxygen generation: 1064 nm, relative to phenalenone, corrected for photon flux; for percent decrease in DPBF signal at 415 nm: 30 seconds
Text: Phenalenone, a highly efficient singlet oxygen generator with a known singlet oxygen quantum yield of 0.97 in chloroform was used to benchmark the efficiency of IR-1061-acridinium singlet oxygen generation in chloroform. A solution of phenalenone at an absorbance of 0.30 at 365 nm was generated that also contained DPBF at an absorbance of approximately 1.0. This solution was irradiated for 30 seconds using a 365 nm variable power LED (3-300 mW, Thor labs) at 30 mW/cm^2. The percent decrease in DPBF signal at 415 nm was calculated, taking into account any background from phenalenone. This was done in triplicate. A similar experiment was then run using IR-1061-acridinium. A solution containing the dye at an absorbance of 0.30 at 1064 and DPBF at an absorbance of approximately 1.0 was irradiated for 30 seconds using a 1064 nm Nd:YAG laser with a power output of 1.8 W/cm^2. The percent decrease in DPBF signal at 415 nm was then calculated, taking into account any background from IR-1061-acridinium. This was also done in triplicate.
The percent decrease attributed to phenalenone was calculated to be 0.53 and the percent decrease attributed to IR-1061-acridinium was calculated to be 0.29. To account for the difference in photon flux at these two wavelengths, the ratio of the photon flux was calculated, where the photon flux was described by the following equation: PF=I*λ/(h*c*Na). PF stands for photon flux, I is the irradiation intensity, λ is the irradiation wavelength, his Planck's constant, c is the speed of light and Na is Avogadro's number. The ratio of the photon flux was simplified to PFR=(IPhe*λPhe)/(IIR*λIr)=(0.03 W/cm^2*365 nm)/(1.8 W/cm^2*1064 nm)=0.006. Considering this difference in photon flux and phenalenone's known quantum yield of singlet oxygen generation of 0.97, this yielded a relative quantum yield of about 0.003, or 0.3%.

[4] = NIR absorbance spectrum; assay type: physicochemical; design: dose or concentration left out as unconfirmed; settings: CDCl3
Method: as §1

[5] = in chloroform, irradiation at 365 nm; cited from earlier work
[6] = 980 nm, D2O with DMSO-D6 for solubility
[7] = 1064 nm laser, 1.8 W cm-2, CDCl3, 5 minutes

ClC1=C(/C=C/c2cc(-c3ccccc3)[s+]c(-c3ccccc3)c2)CCC/C1=C\C=C1C=C(c2ccccc2)SC(c2ccccc2)=C1 [IR-1061, reference compound]
change in DPBF signal after irradiation [1]: no significant changes in DPBF signal

C(/C=C1\CCCC(/C=C/c2cc(-c3ccccc3)[s+]c(-c3ccccc3)c2)=C1[n+]1c2ccccc2cc2ccccc21)=C1C=C(c2ccccc2)SC(c2ccccc2)=C1 [IR-1061-acridinium BArF]
photosensitization capability after counterion exchange BF4- to BArF- ([1]; 980 nm, CDCl3, compared with tetrafluoroborate salt): marked decrease in photosensitization capability; also recorded: Reactivity was significantly reduced
solubility after counterion exchange BF4- to BArF- ([2]; compared with BF4- salt): increase in solubility

C(/C=C1\CCCC(/C=C/c2cc(-c3ccccc3)[s+]c(-c3ccccc3)c2)=C1[n+]1c2ccccc2cc2ccccc21)=C1C=C(c2ccccc2)SC(c2ccccc2)=C1 [IR-1061-acridinium]
relative quantum yield of singlet oxygen generation [3]: about 0.003
relative quantum yield of singlet oxygen generation ([3]; approximate): ~0.3%
percent decrease in DPBF signal at 415 nm ([3]; 1064 nm Nd:YAG laser at 1.8 W/cm2, absorbance 0.30 at 1064, triplicate): 0.29
change in DPBF signal after irradiation [1]: significant DPBF photobleaching was observed only after 30 minutes
DPBF degradation rate in water [1, 6]: comparable to those seen in chloroform
photobleaching of the dye in water [1, 6]: high levels of photobleaching
singlet oxygen generation in nonpolar solvents ([1]; 980 nm, deuterated nonpolar solvents such as toluene): no singlet oxygen generation was observed
DPBF degradation in polar aprotic solvents ([1]; 980 nm, deuterated polar aprotic solvents such as DMSO): decreased DPBF degradation
change in DPBF signal, freeze-pump-thawed sample devoid of oxygen ([1]; 980 nm, freeze-pump-thawed CDCl3): no change in DPBF signal
DPBF photobleaching after irradiation [1, 7]: near complete photobleaching of DPBF; also recorded: Rapid bleaching of both the dye and DPBF signal
bleaching of the dye during irradiation [1, 7]: significant bleaching of the dye
λmax of NIR absorbance [4]: 1078
effect of introduction of protein (BSA) ([2]; BSA added): precipitation of the dye

C(/C=C1\CCCC(/C=C/c2cc(-c3ccccc3)[s+]c(-c3ccccc3)c2)=C1[n+]1ccccc1)=C1C=C(c2ccccc2)SC(c2ccccc2)=C1 [IR-1061-pyridinium]
change in DPBF signal after irradiation [1]: significant decrease in the DPBF signal
stability to hydration during purification ([2]; all evaluated purification conditions): too sensitive to isolate in pure form due to hydration

O=C1C=Cc2cccc3cccc1c23 [phenalenone, reference compound]
percent decrease in DPBF signal at 415 nm ([3]; 365 nm LED at 30 mW/cm2, absorbance 0.30 at 365 nm, triplicate): 0.53
known singlet oxygen quantum yield [5]: 0.97
